Among the data in US6900354B2, “3-phenyl-propionamido, 3-phenyl-acrylamido and 3-phenyl-propynamido derivatives” (Hoffman-La Roche Inc., priority 2002, dated 2005) are IC50 values, retold here.

Test [1] has as its target T1, human MAO-A (Homo sapiens, UniProt P21397).
T1 construct: expressed in transfected cells; host or cells: EBNA cells (transient transfection); membranes by centrifugation at 45,000 x g
T1 sequence (P21397 1-527): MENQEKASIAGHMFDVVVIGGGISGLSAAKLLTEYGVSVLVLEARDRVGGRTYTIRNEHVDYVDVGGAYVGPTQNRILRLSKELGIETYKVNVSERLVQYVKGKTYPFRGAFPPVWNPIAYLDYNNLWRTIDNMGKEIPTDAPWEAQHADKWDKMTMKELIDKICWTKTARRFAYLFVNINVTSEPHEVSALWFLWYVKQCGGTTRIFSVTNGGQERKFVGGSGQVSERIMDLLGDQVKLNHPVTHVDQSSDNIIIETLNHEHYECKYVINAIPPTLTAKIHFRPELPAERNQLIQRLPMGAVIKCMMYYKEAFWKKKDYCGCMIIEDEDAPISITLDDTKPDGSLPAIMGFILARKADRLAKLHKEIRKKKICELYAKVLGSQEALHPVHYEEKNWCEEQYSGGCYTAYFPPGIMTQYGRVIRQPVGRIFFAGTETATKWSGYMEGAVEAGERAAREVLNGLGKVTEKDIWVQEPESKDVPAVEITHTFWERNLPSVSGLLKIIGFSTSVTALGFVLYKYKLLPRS
The experiment in a line: MAO-A enzymatic activity, spectrophotometric assay (Amplex Red, tyramine) on membranes of transfected EBNA cells. Type of test: biochemical. As to conditions: heading: MAO-A IC50, substrate tyramine, 30 min preincubation at 37° C., pH 7.4. As for the experimental part: (§1) The pharmacological activity of the compounds was tested using the following method. The cDNAs encoding human MAO-A and MAO-B were transiently transfected into EBNA cells using the procedure described by Schlaeger and Christensen [Transient Gene Expression in Mammalian Cells Grown in Serum-free Suspension Culture; Cytotechnology, 15:1-13 (1998)]. After transfection, cells were homogenised by means of a Polytron homogenizer in 20 mM Tris HCl buffer, pH 8.0, containing 0.5 mM EGTA and 0.5 mM phenylmethanesulfonyl fluoride. Cell membranes were obtained by centrifugation at 45,000×g and, after two rinsing step with 20 mM Tris HCl buffer, pH 8.0, containing 0.5 mM EGTA, membranes were eventually re-suspended in the above buffer and aliquots stored at −80° C. until use.
(§2) MAO-A and MAO-B enzymatic activity was assayed in 96-well-plates using a spectrophotometric assay adapted from the method described by Zhou and Panchuk-Voloshina [A One-Step Fluorometric Method for the Continuous Measurement of Monoamine Oxidase Activity, Analytical Biochemistry 253:169-174 (1997)]. Briefly, membrane aliquots were incubated in 0.1 M potassium phosphate buffer, pH 7.4, for 30 min at 37° C. with or without various concentrations of the compounds. After this period, the enzymatic reaction was started by the addition of the MAO substrate tyramine together with 1 U/ml horse-radish peroxidase (Roche Biochemicals) and 80 μM N-acetyl-3,7,-dihydroxyphenoxazine (Amplex Red, Molecular Probes). The samples were further incubated for 30 min at 37° C. in a final volume of 200 μl and absorbance was then determined at a wavelength of 570 nm using a SpectraMax plate reader (Molecular Devices). Background (non-specific) absorbance was determined in the presence of 10 μM clorgyline for MAO-A or 10 μM L-deprenyl for MAO-B.
(§3) IC50 values were determined from inhibition curves obtained using nine inhibitor concentrations in duplicate, by fitting data to a four parameter logistic equation using a computer program.

Test [2] deals with T2, human MAO-B (Homo sapiens, UniProt P27338).
T2 construct: expressed in transfected cells; host or cells: EBNA cells (transient transfection); membranes by centrifugation at 45,000 x g
T2 sequence (P27338 1-520): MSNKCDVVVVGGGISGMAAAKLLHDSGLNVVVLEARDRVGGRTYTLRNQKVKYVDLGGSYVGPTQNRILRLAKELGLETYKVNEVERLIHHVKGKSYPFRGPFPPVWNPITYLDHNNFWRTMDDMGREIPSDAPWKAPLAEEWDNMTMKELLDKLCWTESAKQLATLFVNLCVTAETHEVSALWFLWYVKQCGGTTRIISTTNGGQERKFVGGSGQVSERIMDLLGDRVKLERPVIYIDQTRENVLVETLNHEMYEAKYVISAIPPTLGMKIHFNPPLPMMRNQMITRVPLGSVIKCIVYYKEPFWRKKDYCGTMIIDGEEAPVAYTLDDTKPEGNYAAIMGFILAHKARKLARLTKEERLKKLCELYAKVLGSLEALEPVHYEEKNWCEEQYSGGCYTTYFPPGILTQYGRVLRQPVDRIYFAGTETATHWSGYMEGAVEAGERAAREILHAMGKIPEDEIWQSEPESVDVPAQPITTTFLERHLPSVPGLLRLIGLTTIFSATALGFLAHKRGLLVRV
Kind of test: MAO-B enzymatic activity, spectrophotometric assay (Amplex Red, tyramine) on membranes of transfected EBNA cells. The note with it: substrate tyramine, 30 min preincubation at 37° C., pH 7.4. Format: biochemical. As for the experimental part:
as §1, §2, §3

pIC50: −log10 of the molar value.

What is called pIC50 is −log10 of the IC50, conventionally taken in molar units. A low value points to a high IC50. As to `CC(=Cc1ccc(OCc2cccc(F)c2)cc1)C(N)=O` [Example 1, 3-[4-(3-Fluoro-benzyloxy)-phenyl]-2-methyl-acrylamide], the pIC50 in test [1] is < 5.00; in test [2], 7.08.
In the same order, the values of `CNC(=O)C(C)Cc1ccc(OCc2cccc(F)c2)cc1` (stereo not drawn) [Example 4, 3-[4-(3-Fluoro-benzyloxy)-phenyl]-2,N-dimethyl-propionamide] are < 5.00 and 7.54.
For `NC(=O)C#Cc1ccc(OCc2cccc(F)c2)cc1` [Example 5, 3-[4-(3-Fluoro-benzyloxy)-phenyl]-propynoic acid amide], the negative logarithm of the IC50 (pIC50) in test [1] is 5.25; in test [2], 7.01.
